Data set [1] deals with P. aeruginosa cra3840 (PA 02). In kind it is cell-based. An excerpt: (§1) The experimental scheme reported in Figure 6 helped to simplify and optimize the in vitro testing of the antibacterial activity of the different AMPs. The initial transparent microtiter plate for the determination of the minimum inhibitory concentration (MIC) by optical density (OD) measurement was conveniently used as a starting point not only for the alterative determination of the MIC by luminescence but also for the minimum bactericidal concentration (MBC) and for the minimum biofilm inhibitory concentration (MBIC), as explained below. For every test peptide, at least three independent experiments were performed on each bacterial strain per test condition (100% MHB and 20% MHB). The sole exception to this rule was when MIC values were on rare occasions found to be greater than 500 µg/mL. Under these circumstances, two consecutive experiments were performed to confirm the results. In this case, the antibacterial activity was considered insignificant and the third experiment was generally considered unnecessary.
(§2) The antibacterial properties of the test AMPs were assayed under two distinct conditions of bacterial culture: (i) with bacteria cultured in undiluted Mueller–Hinton II Broth (MHB II) and (ii) with bacteria cultured in diluted MHB II as earlier described in Campoccia et al.. Briefly, a few colonies of each bacterial strain, taken from overnight cultures on Mueller–Hinton Agar plates (MHA, PO50007A, ThermoScientific, Thermo Fisher Scientific, Segrate, Italy), were resuspended in Mueller–Hinton II Broth (MHB II, 24107, Liofilchem, Roseto degli Abruzzi, Italy), either undiluted or at a 20% dilution in deionized water. The concentration of bacteria was adjusted to approximately 10^8 CFU/mL, as estimated by optical density reading at 625 nm, using a Hewlett Packard G1103A spectrophotometer (Waldbronn, Germany). The bacterial suspension was further diluted 1:100 in 100% or 20% MHB II.
(§3) Serial 1:2 dilutions of all the test peptides were prepared in sterile deionized water starting from a stock solution of 1 mg/mL. Microtiter plates (96-Well CytoOne® Plate, CC7672-7596, Starlab S.r.l., Milano, Italy) were prepared by adding a volume of 100 µL of inoculum to 100 µL of treatment. Each AMP dilution was assayed in triplicate; each microplate included triplicate wells for the blank (100 µL of sterile distilled water and 100 µL of sterile MHB II), and 3 to 6 wells for reference control of 100% growth (100 µL of sterile deionized water and 100 µL of MHB II inoculated with the bacterium). Positive controls were performed in triplicate wells with 100 µL of a 10 mg/mL gentamicin solution (G1272, Sigma Aldrich, Milan, Italy) and with 100 µL of a solution containing 10,000 units/mL of penicillin and 10,000 µg/mL of streptomycin (penicillin–streptomycin, 15140-122, Life Technologies, Monza, Italy).
(§4) After a 1-day incubation at 37 °C, the MIC was determined by two distinct methods: (1) optical density measurement and (2) bioluminescence reading. In the first case, the optical density of the microtiter plates was read directly at a wavelength of 600 nm and the MIC was estimated from the curves obtained by plotting the OD measurements. For the bioluminescence reading, after gentle resuspension, 100 µL of each treated culture was transferred to a new 96-well non-treated plate (236105/237105, Life Technologies, Monza, Italy) and the metabolic activity was determined by the kit Bac-Titer Glo Microbial Cell Viability Assay (G8231, Promega Italia S.r.l, Milan, Italy). Optical density and bioluminescence were read by a Modulus II multifunction plate reader (Turner BioSystems, Sunnyvale, CA, USA) or, alternatively, by an Infinite M Plex (Tecan Group Ltd., Männedorf, Switzerland). As earlier described in [24], in the case of luminescence, the MIC was identified from the curves of growth inhibition as the first concentration leading to a 1-log reduction in bacterial growth (i.e., 90% growth inhibition). […]

The subject of data set [2] is P. aeruginosa cra4004 (PA 01). The data set is classed as cell-based.
Source text: as §1, §2, §3, §4

The test system of data set [3] is E. coli cra4038 (EC). The data set is classed as cell-based. Conditions: cra4038 (EC).
Source text: as §1, §2, §3
(§5) The wells of the microplate, initially used for the determination of the MIC, were rinsed twice with 220 µL of phosphate-buffered solution (PBS) to remove loosely attached and planktonic bacteria. A total of 100 µL of fresh PBS and 100 µL of Bac-Titer Glo solution (G8231, Promega Italia S.r.l., Milan, Italy) were added to each well. After a 10 min incubation, a volume of 100 µL was transferred to a new microplate for luminescence determination as described above. As a general rule, the MBIC value was identified as the concentration at which a reduction of at least a log in the metabolic activity was observed.

The subject of data set [4] is E. faecalis cra4033 (EF 02). The data set is classed as cell-based.
Source text: as §1, §2, §3, §5

Data set [5] has as its system P. aeruginosa cra3840 (PA 02). The data set is classed as cell-based. Conditions: cra3840 (PA 02, 24 h).
Source text: as §1, §2, §3, §5

The subject of data set [6] is P. aeruginosa cra4004 (PA 01). In kind it is cell-based.
Source text: as §1, §2, §3, §5
This is another data set of the same source.

Data set [7] concerns S. aureus cra2198 (SA 02). The data set is classed as cell-based. Conditions: cra2198 (SA 02, 24 h).
Source text: as §1, §2, §3, §5

The subject of data set [8] is S. aureus cra4030 (SA 01). The data set is classed as cell-based.
Source text: as §1, §2, §3, §5

In data set [9] the test system is S. epidermidis cra4029 (SE 02). In kind it is cell-based. The settings on record: cra4029 (SE 02).
Source text: as §1, §2, §3, §5

In data set [10] the test system is osteoblast-like MG63 cells. Description: LDH cytotoxicity assay on osteoblast-like cells. The data set is classed as cell-based, human. The settings on record: 1% Tween-20, Positive Control, 24 h, mean, SD ± 4.2%. On the procedure: MG63 cells (ATCC, Rockville, MD, USA) were thawed from a frozen stock and cultured in DMEM (11885-084, Thermo Fisher Scientific, Segrate, Italy) supplemented with non-inactivated 10% fetal bovine serum (FBS, F7524, Sigma-Aldrich, Milan, Italy) and 100× Penicillin/Streptomycin solution (P/S, 10,000 units penicillin and 10 mg streptomycin/mL, P4333, Sigma-Aldrich, Milan, Italy), under standard culture conditions (i.e., at 37 °C, in a humidified atmosphere with 5% CO2). Cells were regularly subcultured 2–3 times a week by using TrypLE Select 1× (GIBCO, Thermo Fisher Scientific, Segrate, Italy).
A suspension of MG63 cells was prepared in complete DMEM at a concentration of 5 × 10^4 cells/mL. […]
Cytotoxicity was assessed by measuring the release of lactate dehydrogenase (LDH) from damaged cells by the LDH Cytotoxicity Assay (ab197004, Abcam, Cambridge, UK), strictly following the instructions of the manufacturer. […] After 10 min shaking, the plate was read in fluorescence (excitation: 535 nm; emission 587 nm) by an Infinite 200 PRO mod. M PLEX multifunction plate reader (Tecan Group Ltd., Männedorf, Switzerland). […]
Data in relative fluorescence units (RFU) from the investigation on KSL-W suppression of S. aureus cytotoxicity were processed as follows. […]

The values below come from paper PMC12386934, “Characteristics and Potential of KSL, KSL-W, and Dadapin-1 Antimicrobial Peptides for Preventing Infections of Orthopedic Prosthetic Devices: Identifying the Most Robust Candidate” (International Journal of Molecular Sciences, 2025).

As a reminder, the MIC is the smallest concentration in the dilution series that meets the test's criterion for growth inhibition. A low value points to inhibition by little substance.

Converted amounts (≈) assume the structure as drawn. Where a SMILES comes first, the peptide text is derived from it.

As for `CC(C)[C@H](NC(=O)[C@H](CCCCN)NC(=O)[C@H](Cc1ccccc1)NC(=O)[C@@H](NC(=O)[C@@H](NC(=O)[C@H](CCCCN)NC(=O)[C@@H](N)CCCCN)C(C)C)C(C)C)C(=O)N[C@@H](CCCCN)C(=O)N[C@@H](Cc1ccccc1)C(=O)N[C@@H](CCCCN)C(=O)O` [KSL] (H-KKVVFKVKFK-OH), the MIC in data set [1] and in [2] was 3.91 µg/mL (≈ 3.13 µM) throughout. The “LR, Log10 reduction in bacterial metabolism for a given MBIC” value in data set [3] was 3 LR; in data set [4] (cra4033 (EF 02)) it was 2 LR; in data set [6], 3 LR; in data set [8] (cra4030 (SA 01)) it was 2 LR; in data set [9], 2 LR. In addition, the MBIC in data set [4] (cra4033 (EF 02, 24 h)) was 250 µg/mL; in data set [5] it was 3.91 µg/mL; in data set [7], 31.25 µg/mL; in data set [8] (cra4030 (SA 01, 24 h)), 1.95 µg/mL.
For the molecule Tween-20, the “cytotoxicity (LDH, % of Lysate Control)” value in data set [10] was determined as 50.3%.
